According to US8192962B2, “Processes for detecting toxic substances” (Daikin Industries, Ltd., priority 2001, dated 2012):

Test system: Metabolism protein genes
Assay: DNA chip mRNA expression in yeast, metabolism protein genes (Table 7)
Assay type: cell-based, Saccharomyces cerevisiae S288C
Procedure, shortened: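 Whole-genome yeast DNA chip hybridization (65° C., >12 h) of Cy-labeled cDNA from S288C cells exposed 2 h at 25° C. to a sub-lethal toxicant dose in YPD; value is intensity relative to chemical-free control.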

## CN(C)C(=S)SSC(=S)N(C)C [(10), Tetramethylthiuram disulfide]
Yeast gene YFL014W
  The level of expressed mRNA in the presence of chemical substance/The level of expressed mRNA in the absence of chemical substance: 5.8
Yeast gene YFL030W
  The level of expressed mRNA in the presence of chemical substance/The level of expressed mRNA in the absence of chemical substance: 4.9
Yeast gene YFL031W
  The level of expressed mRNA in the presence of chemical substance/The level of expressed mRNA in the absence of chemical substance: 0.7
Yeast gene YFL056C
  The level of expressed mRNA in the presence of chemical substance/The level of expressed mRNA in the absence of chemical substance: 31.3
Yeast gene YFL057C
  The level of expressed mRNA in the presence of chemical substance/The level of expressed mRNA in the absence of chemical substance: 46.1
Yeast gene YFR047C
  The level of expressed mRNA in the presence of chemical substance/The level of expressed mRNA in the absence of chemical substance: 1.5
Yeast gene YGL012W
  level of expressed mRNA in the presence/in the absence of chemical substance: 0.9
Yeast gene YGL022W
  The level of expressed mRNA in the presence of chemical substance/The level of expressed mRNA in the absence of chemical substance: 0.4
Yeast gene YGL115W
  level of expressed mRNA in the presence/in the absence of chemical substance: 1.2
Yeast gene YGL126W
  The level of expressed mRNA in the presence of chemical substance/The level of expressed mRNA in the absence of chemical substance: 0.7
Yeast gene YGL202W
  The level of expressed mRNA in the presence of chemical substance/The level of expressed mRNA in the absence of chemical substance: 1.7
Yeast gene YGL205W
  level of expressed mRNA in the presence/in the absence of chemical substance: 0.6
Yeast gene YGL209W
  The level of expressed mRNA in the presence of chemical substance/The level of expressed mRNA in the absence of chemical substance: 0.4
Yeast gene YGL248W
  The level of expressed mRNA in the presence of chemical substance/The level of expressed mRNA in the absence of chemical substance: 2.9
Yeast gene YGL252C
  The level of expressed mRNA in the presence of chemical substance/The level of expressed mRNA in the absence of chemical substance: 1.7
Yeast gene YGR037C
  The level of expressed mRNA in the presence of chemical substance/The level of expressed mRNA in the absence of chemical substance: 1.4
Yeast gene YGR055W
  The level of expressed mRNA in the presence of chemical substance/The level of expressed mRNA in the absence of chemical substance: 2.4
Yeast gene YGR096W
  level of expressed mRNA in the presence/in the absence of chemical substance: 0.8
Yeast gene YGR191W
  level of expressed mRNA in the presence/in the absence of chemical substance: 0.7
Yeast gene YGR194C
  The level of expressed mRNA in the presence of chemical substance/The level of expressed mRNA in the absence of chemical substance: 2.1
Yeast gene YGR204W
  level of expressed mRNA in the presence/in the absence of chemical substance: 2.3
Yeast gene YGR256W
  The level of expressed mRNA in the presence of chemical substance/The level of expressed mRNA in the absence of chemical substance: 2.5
Yeast gene YGR282C
  The level of expressed mRNA in the presence of chemical substance/The level of expressed mRNA in the absence of chemical substance: 0.8
Yeast gene YGR288W
  level of expressed mRNA in the presence/in the absence of chemical substance: 2.6
Yeast gene YHR025W
  level of expressed mRNA in the presence/in the absence of chemical substance: 0.4
Yeast gene YHR111W
  The level of expressed mRNA in the presence of chemical substance/The level of expressed mRNA in the absence of chemical substance: 4.2
Yeast gene YHR123W
  level of expressed mRNA in the presence/in the absence of chemical substance: 1.1
Yeast gene YHR137W
  The level of expressed mRNA in the presence of chemical substance/The level of expressed mRNA in the absence of chemical substance: 0.9
Yeast gene YHR174W
  The level of expressed mRNA in the presence of chemical substance/The level of expressed mRNA in the absence of chemical substance: 1.5
Yeast gene YHR176W
  The level of expressed mRNA in the presence of chemical substance/The level of expressed mRNA in the absence of chemical substance: 6.4
Yeast gene YHR210C
  level of expressed mRNA in the presence/in the absence of chemical substance: 0.9
Yeast gene YIL006W
  level of expressed mRNA in the presence/in the absence of chemical substance: 1.1
Yeast gene YIL045W
  The level of expressed mRNA in the presence of chemical substance/The level of expressed mRNA in the absence of chemical substance: 3.2
Yeast gene YIL107C
  The level of expressed mRNA in the presence of chemical substance/The level of expressed mRNA in the absence of chemical substance: 3.5
Yeast gene YIL154C
  The level of expressed mRNA in the presence of chemical substance/The level of expressed mRNA in the absence of chemical substance: 1.0
Yeast gene YIL155C
  The level of expressed mRNA in the presence of chemical substance/The level of expressed mRNA in the absence of chemical substance: 2.9
Yeast gene YIL167W
  The level of expressed mRNA in the presence of chemical substance/The level of expressed mRNA in the absence of chemical substance: 12.7
Yeast gene YIL172C
  The level of expressed mRNA in the presence of chemical substance/The level of expressed mRNA in the absence of chemical substance: 7.1
Yeast gene YIR034C
  The level of expressed mRNA in the presence of chemical substance/The level of expressed mRNA in the absence of chemical substance: 3.5
Yeast gene YIR036C
  The level of expressed mRNA in the presence of chemical substance/The level of expressed mRNA in the absence of chemical substance: 1.9
Yeast gene YJL031C
  The level of expressed mRNA in the presence of chemical substance/The level of expressed mRNA in the absence of chemical substance: 3.6
Yeast gene YJL068C
  The level of expressed mRNA in the presence of chemical substance/The level of expressed mRNA in the absence of chemical substance: 3.1
Yeast gene YJL088W
  The level of expressed mRNA in the presence of chemical substance/The level of expressed mRNA in the absence of chemical substance: 4.1
Yeast gene YJL099W
  The level of expressed mRNA in the presence of chemical substance/The level of expressed mRNA in the absence of chemical substance: 3.1
Yeast gene YJL121C
  level of expressed mRNA in the presence/in the absence of chemical substance: 0.4
Yeast gene YJL167W
  level of expressed mRNA in the presence/in the absence of chemical substance: 0.9
Yeast gene YJL172W
  The level of expressed mRNA in the presence of chemical substance/The level of expressed mRNA in the absence of chemical substance: 1.9
Yeast gene YJL219W
  The level of expressed mRNA in the presence of chemical substance/The level of expressed mRNA in the absence of chemical substance: 2.3
Yeast gene YJR077C
  level of expressed mRNA in the presence/in the absence of chemical substance: 0.7
Yeast gene YJR137C
  The level of expressed mRNA in the presence of chemical substance/The level of expressed mRNA in the absence of chemical substance: 4.8
